We go through 25 compounds from patent US20020019527A1 (priority 2000, published 2002).

SMILES strings stand for the structures. Where a name gives a salt, the structure may show the parent alone. Read-outs that look alike come from different tables or passages of the source.

The target in the test is T1, Farnesyltransferase (FTase) (Bos taurus, UniProt P29702+P49355).
T1 construct: precipitation from a beef brain homogenate; from tissue; host or cells: bovine brain
Put plainly: Farnesyltransferase inhibition (scintillation proximity assay, [3H]-FPP / biotin-K-ras peptide). The test is classed as biochemical, bovine. On the procedure:
Farnesyltransferase (FTase) or geranylgeranyltransferase I (GGTase I) fractions were isolated from bovine brains and purified by a series of methods which separate FTase from GGTase I and GGTase I from GGTase II. The methods involved a partial purification of all three enzymes by precipitation from a beef brain homogenate with 30% to 50% saturated […] followed by chromatography on DEAE Sepharose. […] The catalytic purity of each enzyme was assayed separately with substrate acceptor proteins specific for that enzyme. After quickly freezing in liquid nitrogen, the various prenyl transferases were stored at −80° C.
The quenched reactions stood for 1 hour before analysis in a Packard TopCount scintillation counter. Purified compounds were dissolved in 100% ethanol and diluted 10-fold into the assay.
(In a scintillation proximity assay essentially only radioactivity close to the scintillant gives light.)

Setting [1] is: compound at 10^−6 M, bovine FTase, 37° C., 30 minutes.

T1 sequence (P49355 whole entry, one chain of several): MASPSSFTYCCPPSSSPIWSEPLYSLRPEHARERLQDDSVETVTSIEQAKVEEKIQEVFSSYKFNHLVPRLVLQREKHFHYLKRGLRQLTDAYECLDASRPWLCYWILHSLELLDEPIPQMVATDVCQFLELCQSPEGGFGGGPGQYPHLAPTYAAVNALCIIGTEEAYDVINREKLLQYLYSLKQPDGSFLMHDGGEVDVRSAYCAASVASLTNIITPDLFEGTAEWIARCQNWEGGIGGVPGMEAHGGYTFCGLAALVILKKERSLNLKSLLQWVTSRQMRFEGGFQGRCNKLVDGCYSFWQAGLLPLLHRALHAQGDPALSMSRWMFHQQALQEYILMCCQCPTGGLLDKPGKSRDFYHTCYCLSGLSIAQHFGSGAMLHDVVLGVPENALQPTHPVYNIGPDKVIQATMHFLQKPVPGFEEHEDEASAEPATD

For orientation: inhibition means the change of the read-out against control, counted positive when it falls. Take `Cn1cncc1C(OCc1ccccc1)c1ccc(C#N)c(C2CCCCC2)c1` (stereo not shown) [Example 100, 4-((benzyloxy)(1-methyl-1H-imidazol-5-yl)methyl)-2-cyclohexylbenzonitrile hydrochloride]: testing at 1 µM under setting [1] gave an inhibition of 83%.

As a reminder, the % Inhibition is the change of the read-out against control, counted positive when it falls. Turning to `Cc1ccccc1COC(c1ccc(C#N)c(-c2ccccc2C)c1)c1cncn1C.Cl` (stereo not shown) [Example 135], the “% Inhibition at 10^−6M” value is on record as 94%.

As to `Cc1ccccc1-c1cc(CN(CCC2CCCCC2)Cc2cncn2C)ccc1C#N` [Example 82, 5-(((2-cyclohexylethyl)((1-methyl-1H-imidazol-5-yl)methyl)amino)methyl)-2′-methyl(1,1′-biphenyl)-2-carbonitrile hydrochloride], at 1 µM the inhibition under setting [1] was 87%.

For `Cc1ccccc1-c1cc(C(OCc2cccc(OC(F)(F)F)c2)c2cncn2C)ccc1C#N.Cl` (stereo not shown) [Example 143], the “% Inhibition at 10^−6M” value was determined as 97%.

Consider `CNC(=O)c1ccc(COC(c2ccc(C#N)c(-c3ccccc3C)c2)c2cncn2C)cc1` (stereo not shown) [Example 189, 4-(((6-cyano-2′-methyl(1,1′-biphenyl)-3-yl)(1-methyl-1H-imidazol-5-yl)methoxy)methyl)-N-methylbenzamide], for which the inhibition at 1 µM under setting [1] stood at 95%.

For `CC(=O)Nc1ccc(CNC(c2ccc(C#N)c(-c3cccc4ccccc34)c2)c2cncn2C)cc1` (stereo not shown) [Example 53, N-(4-((((4-cyano-3-(1-naphthyl)phenyl)(1-methyl-1H-imidazol-5-yl)methyl)amino)methyl)phenyl)acetamide dihydrochloride], under setting [1], the inhibition at 1 µM came out at 100%.

For the compound `Cc1ccccc1-c1cc(N(Cc2ccccc2)Cc2cnc[nH]2)ccc1C#N` [Example 270, 5-(benzyl(1H-imidazol-5-ylmethyl)amino)-2′-methyl(1,1′-biphenyl)-2-carbonitrile], the inhibition at 1 µM under setting [1] is 100%.

Take `Cc1ccccc1-c1cc(C(OCc2ccc(C(F)(F)F)cc2F)c2cncn2C)ccc1C#N` (stereo not shown) [Example 187, 5-(((2-fluoro-4-(trifluoromethyl)benzyl)oxy)(1-methyl-1H-imidazol-5-yl)methyl)-2′-methyl(1,1′-biphenyl)-2-carbonitrile hydrochloride]: the inhibition at 1 µM under setting [1] is 93%.

`COc1cccc(COC(c2ccc(C#N)c(-c3ccccc3C)c2)c2cncn2C)c1` (stereo not shown) [Example 134, 5-(((3-methoxybenzyl)oxy)(1-methyl-1H-imidazol-5-yl)methyl)-2′-methyl(1,1′-biphenyl)-2-carbonitrile hydrochloride]: the inhibition at 1 µM under setting [1] was 93%.

`CC(=O)Nc1ccc(CN(Cc2ccc(C#N)c(-c3cccc4ccccc34)c2)Cc2cncn2C)cc1` [Example 194, N-(4-(((4-cyano-3-(1-naphthyl)benzyl)((1-methyl-1H-imidazol-5-yl)methyl)amino)methyl)phenyl)acetamide dihydrochloride] had an inhibition at 1 µM under setting [1] of 97%.

Compound `Cn1cncc1C(NC1CCN(C(=O)c2ccccc2)CC1)c1ccc(C#N)c(-c2cccc3ccccc23)c1` (stereo not shown) [Example 57, 4-(((1-benzoyl4-piperidinyl)amino)(1-methyl-1H-imidazol-5-yl)methyl)-2-(1-naphthyl)benzonitrile dihydrochloride] displayed an inhibition at 1 µM under setting [1] of 100%.

`Cc1ccccc1-c1cc(C(OCc2ccc(-c3ccccc3)cc2)c2cncn2C)ccc1C#N` (stereo not shown) [Example 161, 5-(((1,1′-biphenyl)-4-ylmethoxy)(1-methyl-1H-imidazol-5-yl)methyl)-2′-methyl(1,1′-biphenyl)-2-carbonitrile hydrochloride] yielded an inhibition at 1 µM under setting [1] of 96%.

Under setting [1], `Cn1cncc1C(NCc1ccc(C#N)c(I)c1)c1ccc(C#N)c(-c2cccc3ccccc23)c1` (stereo not shown) [Example 37, 4-(((4-cyano-3-iodobenzyl)amino)(1-methyl-1H-imidazol-5-yl)methyl)-2-(1-naphthyl)benzonitrile dihydrochloride] gave an inhibition at 1 µM of 100%.

`Cc1ccccc1-c1cc(CN(Cc2ccccc2)Cc2cccnc2)ccc1C#N` [Example 215, 5-((benzyl(3-pyridinylmethyl)amino)methyl)-2′-methyl(1,1′-biphenyl)-2-carbonitrile hydrochloride]: under setting [1], at 1 µM the inhibition was 29%.

With `COC(=O)c1cccc(CN(Cc2cncn2C)c2ccc(C#N)c(-c3cccc4ccccc34)c2)c1` [Example 271, methyl 3-((4-cyano((1-methyl-1H-imidazol-5-yl)methyl)-3-(1-naphthyl)anilino)methyl)benzoate], the “% Inhibition at 10^−6M” value under setting [1] was determined as 100%.

With `Cn1cncc1C(c1ccc(C#N)c(-c2cccc3ccccc23)c1)S(=O)(=O)Cc1ccc(C#N)cc1` (stereo not shown) [Example 71, 4-(((4-cyanobenzyl)sulfonyl)(1-methyl-1H-imidazol-5-yl)methyl)-2-(1-naphthyl)benzonitrile hydrochloride], the inhibition at 1 µM under setting [1] was 100%.

`Cc1ccccc1-c1cc(C(OCc2ccc(OCc3ccccc3)cc2)c2cncn2C)ccc1C#N` (stereo not shown) [Example 155, 5-(((4-(benzyloxy)benzyl)oxy)(1-methyl-1H-imidazol-5-yl)methyl)-2′-methyl(1,1′-biphenyl)-2-carbonitrile hydrochloride] returned an inhibition at 1 µM under setting [1] of 92%.

Under setting [1], `Cn1cncc1CN(Cc1ccc(C#N)c(-c2cccc3ccccc23)c1)C(=O)c1ccc(Cl)c(F)c1` [Example 198, 4-chloro-N-(4-cyano-3-(1-naphthyl)benzyl)-3-fluoro-N-((1-methyl-1H-imidazol-5-yl)methyl)benzamide] registered an inhibition at 1 µM of 94%.

The compound `Cn1cncc1CN(Cc1ccc(C#N)cc1)Cc1ccc(C#N)c(-c2cccc3ccccc23)c1` [Example 34, 4-(((4-cyanobenzyl)((1-methyl-1H-imidazol-5-yl)methyl)amino)methyl)-2-(1-naphthyl)benzonitrile] yielded an inhibition at 1 µM under setting [1] of 100%.

Under setting [1], `Cn1cncc1C(OCc1ccc(N=[N+]=[N-])cc1)c1ccc(C#N)c(-c2cccc3ccccc23)c1` (stereo not shown) [Example 276, 4-((1-methyl-1H-imidazol-5-yl)((4-azidobenzyl)oxy)methyl)-2-(1-naphthyl)benzonitrile hydrochloride] displayed an inhibition at 1 µM of 100%.

For the compound `Cl.Cl.Cn1cncc1C(OCc1cc(Cl)nc(Cl)c1)c1ccc(C#N)c(-c2cccc3ccccc23)c1` (stereo not shown) [Example 74, 4-(((2,6-dichloro-4-pyridinyl)methoxy)(1-methyl-1H-imidazol-5-yl)methy)-2-(1-naphthyl)benzonitrile dihydrochloride], under setting [1], the “% Inhibition at 10^−6M” value is given as 100%.

Regarding `Cn1cncc1C(NCc1ccc(Cl)cc1)c1ccc(C#N)c(-c2cccc3ccccc23)c1` (stereo not shown) [Example 42, 4-(((4-chlorobenzyl)amino)(1-methyl-1H-imidazol-5-yl)methyl)-2-(1-naphthyl)benzonitrile], the inhibition at 1 µM under setting [1] amounted to 100%.

For the compound `Cc1cc(COC(c2ccc(C#N)c(-c3ccccc3C)c2)c2cncn2C)no1` (stereo not shown) [Example 177, 2′-methyl-5-((1-methyl-1H-imidazol-5-yl)((5-methyl-3-isoxazolyl)methoxy)methyl)(1,1′-biphenyl)-2-carbonitrile hydrochloride], the inhibition at 1 µM under setting [1] amounted to 77%.

`N#Cc1ccc(CN(Cc2ccc(C#N)c(-c3cccc4ccccc34)c2)Cc2cnc[nH]2)cc1` [Example 45, 4-(((4-cyanobenzyl)(1H-imidazol-5-ylmethyl)amino)methyl)-2-(1-naphthyl)benzonitrile dihydrochloride] yielded an inhibition at 1 µM under setting [1] of 100%.

As to `Cc1ccccc1-c1cc(N(Cc2ccccc2)Cc2cccnc2)ccc1C#N` [Example 217, 5-(benzyl(3-pyridinylmethyl)amino)-2′-methyl(1,1′-biphenyl)-2-carbonitrile], under setting [1], at 1 µM the inhibition was 71%.
